Laboratory results published in PubChem BioAssay AID306 (DTP/NCI, 2004).
“And” between values parts separate entries of the source, which are not always exact repeats. Identical values can stand only once. Inconclusive results and toxic doses are left out.

Tested on: BDF1 mice, L1210 Methyl-GAG-resistant leukemia, survival T/C
Test: NCI In Vivo Anticancer Drug Screen. Data for tumor model L1210 Leukemia resistant to Methyl-GAG; NSC 32946 (subcutaneous) in B6D2F1 (BDF1) mice
Conditions: endpoint: mean survival time, higher = longer survival
Experimental: The antitumor activity of compounds was measured in mice bearing transplantable tumors. Survival or tumor size were measured and the results are expressed as the measurement made in the treated group (T) divided by the measurement made in the vehicle treated control group (C). The tumor model used in this assay is L1210 Leukemia resistant to Methyl-GAG; NSC 32946 (subcutaneous) in B6D2F1 (BDF1) mice

[1] = dose: 3.1 mg/kg/injection, schedule: Q01DX Z (ip), vehicle: carboxymethylcellulose (CMC)
[2] = dose: 12.5 mg/kg/injection, schedule: Q01DX Z (ip), vehicle: carboxymethylcellulose (CMC)
[3] = dose: 25.0 mg/kg/injection, schedule: Q01DX Z (ip), vehicle: carboxymethylcellulose (CMC)
[4] = dose: 2.5 mg/kg/injection, schedule: Q01DX Z (ip), vehicle: carboxymethylcellulose (CMC)
[5] = dose: 5.0 mg/kg/injection, schedule: Q01DX Z (ip), vehicle: carboxymethylcellulose (CMC)
[6] = dose: 10.0 mg/kg/injection, schedule: Q01DX Z (ip), vehicle: carboxymethylcellulose (CMC)
[7] = dose: 0.95 mg/kg/injection, schedule: Q01DX Z (ip), vehicle: carboxymethylcellulose (CMC)
[8] = dose: 1.9 mg/kg/injection, schedule: Q01DX Z (ip), vehicle: carboxymethylcellulose (CMC)
[9] = dose: 7.5 mg/kg/injection, schedule: Q01DX Z (ip), vehicle: carboxymethylcellulose (CMC)
[10] = dose: 0.16 mg/kg/injection, schedule: Q01DX Z (ip), vehicle: carboxymethylcellulose (CMC)
[11] = dose: 0.31 mg/kg/injection, schedule: Q01DX Z (ip), vehicle: carboxymethylcellulose (CMC)
[12] = dose: 1.25 mg/kg/injection, schedule: Q01DX Z (ip), vehicle: carboxymethylcellulose (CMC)

SMILES: N#Cc1cn(C2OC(CO)C(O)C2O)c2ncnc(N)c12 (stereo unspecified)
- T/C (dose: 63.0 micrograms/kg/injection, schedule: Q01DX Z (ip), vehicle: carboxymethylcellulose (CMC)): 96 % of control
- T/C (dose: 125.0 micrograms/kg/injection, schedule: Q01DX Z (ip), vehicle: carboxymethylcellulose (CMC)): 102 % of control
- T/C (dose: 250.0 micrograms/kg/injection, schedule: Q01DX Z (ip), vehicle: carboxymethylcellulose (CMC)): 115 % of control
- T/C (dose: 500.0 micrograms/kg/injection, schedule: Q01DX Z (ip), vehicle: carboxymethylcellulose (CMC)): 93 % of control

SMILES: CCCCn1cnc2c(=S)nc[nH]c21
- T/C [1]: 91 % of control
- T/C (dose: 6.25 mg/kg/injection, schedule: Q01DX Z (ip), vehicle: carboxymethylcellulose (CMC)): 113 % of control
- T/C [2]: 97 % of control
- T/C [3]: 103 % of control

SMILES: O=C(Nc1ccc(C2=NCCCN2)cc1)c1ccc(C(=O)Nc2ccc(C3=NCCCN3)cc2)cc1
- T/C (dose: 0.2 mg/kg/injection, schedule: Q01DX Z (ip), vehicle: water): 100 % of control
- T/C (dose: 0.4 mg/kg/injection, schedule: Q01DX Z (ip), vehicle: water): 108 % of control
- T/C (dose: 0.8 mg/kg/injection, schedule: Q01DX Z (ip), vehicle: water): 121 % of control
- T/C (dose: 1.6 mg/kg/injection, schedule: Q01DX Z (ip), vehicle: water): 158 % of control and 211 % of control
- T/C (dose: 3.1 mg/kg/injection, schedule: Q01DX Z (ip), vehicle: water): 212 % of control

SMILES: COC12C(COC(N)=O)C3=C(C(=O)C(C)=C(N)C3=O)N1CC1C2N1C (stereo unspecified)
- T/C [4]: 96 % of control
- T/C [5]: 103 % of control
- T/C [6]: 122 % of control
- T/C (dose: 20.0 mg/kg/injection, schedule: Q01DX Z (ip), vehicle: carboxymethylcellulose (CMC)): 88 % of control

SMILES: S=P(N1CCOCC1)(N1CC1)N1CC1
- T/C [2]: 104 % of control
- T/C [3]: 102 % of control

SMILES: C=CC(CN1CC1)OC(C)=O (stereo unspecified)
- T/C [7]: 100 % of control
- T/C [8]: 118 % of control
- T/C (dose: 3.8 mg/kg/injection, schedule: Q01DX Z (ip), vehicle: carboxymethylcellulose (CMC)): 118 % of control
- T/C [9]: 120 % of control

SMILES: CN(N=O)C(N)=O
- T/C (dose: 3.2 mg/kg/injection, schedule: Q01DX Z (ip), vehicle: saline): 97 % of control
- T/C (dose: 6.3 mg/kg/injection, schedule: Q01DX Z (ip), vehicle: saline): 113 % of control
- T/C (dose: 12.5 mg/kg/injection, schedule: Q01DX Z (ip), vehicle: saline): 115 % of control
- T/C (dose: 25.0 mg/kg/injection, schedule: Q01DX Z (ip), vehicle: saline): 178 % of control

SMILES: N#[N+]c1cnc([O-])[nH]c1=O
- T/C [5]: 88 % of control
- T/C [6]: 88 % of control

SMILES: CC[C@H](c1ccc(O)cc1)[C@@H](CC)c1ccc(O)cc1
- T/C (dose: 4.0 mg/kg/injection, schedule: Q01DX Z (sc), vehicle: steriod suspending solution): 100 % of control
- T/C (dose: 8.0 mg/kg/injection, schedule: Q01DX Z (sc), vehicle: steriod suspending solution): 100 % of control
- T/C (dose: 16.0 mg/kg/injection, schedule: Q01DX Z (sc), vehicle: steriod suspending solution): 95 % of control
- T/C (dose: 32.0 mg/kg/injection, schedule: Q01DX Z (sc), vehicle: steriod suspending solution): 105 % of control

SMILES: CCN(CC)c1ccc2cc3ccc(=[N+](CC)CC)cc-3oc2c1
- T/C (dose: 0.08 mg/kg/injection, schedule: Q01DX Z (ip), vehicle: carboxymethylcellulose (CMC)): 117 % of control
- T/C [10]: 95 % of control
- T/C [11]: 91 % of control
- T/C (dose: 0.32 mg/kg/injection, schedule: Q01DX Z (ip), vehicle: carboxymethylcellulose (CMC)): 103 % of control
- T/C (dose: 0.63 mg/kg/injection, schedule: Q01DX Z (ip), vehicle: carboxymethylcellulose (CMC)): 91 % of control
- T/C [12]: 87 % of control
- T/C [4]: 91 % of control
- T/C [5]: 95 % of control

SMILES: NC(=O)N(CCCl)N=O
- T/C (dose: 0.5 mg/kg/injection, schedule: Q01DX Z (ip), vehicle: carboxymethylcellulose (CMC)): 95 % of control
- T/C (dose: 1.0 mg/kg/injection, schedule: Q01DX Z (ip), vehicle: carboxymethylcellulose (CMC)): 96 % of control and 101 % of control
- T/C (dose: 2.0 mg/kg/injection, schedule: Q01DX Z (ip), vehicle: carboxymethylcellulose (CMC)): 100 % of control and 101 % of control

SMILES: CCN(CC)C(=S)S
- T/C (dose: 125.0 mg/kg/injection, schedule: Q01DX Z (ip), vehicle: other): 96 % of control
- T/C (dose: 250.0 mg/kg/injection, schedule: Q01DX Z (ip), vehicle: other): 92 % of control
- T/C (dose: 500.0 mg/kg/injection, schedule: Q01DX Z (ip), vehicle: other): 96 % of control
- T/C (dose: 1000.0 mg/kg/injection, schedule: Q01DX Z (ip), vehicle: other): 104 % of control and 114 % of control

SMILES: CCC(=O)O[C@H]1CC[C@H]2[C@@H]3CCC4=CC(=O)CC[C@]4(C)[C@H]3CC[C@]12C
- T/C (dose: 37.5 mg/kg/injection, schedule: Q01DX Z (sc), vehicle: steriod suspending solution): 101 % of control
- T/C (dose: 60.0 mg/kg/injection, schedule: Q01DX Z (sc), vehicle: steriod suspending solution): 120 % of control
- T/C (dose: 75.0 mg/kg/injection, schedule: Q01DX Z (sc), vehicle: steriod suspending solution): 104 % of control
- T/C (dose: 150.0 mg/kg/injection, schedule: Q01DX Z (sc), vehicle: steriod suspending solution): 98 % of control
- T/C (dose: 300.0 mg/kg/injection, schedule: Q01DX Z (sc), vehicle: steriod suspending solution): 98 % of control and 119 % of control
- T/C (dose: 1500.0 mg/kg/injection, schedule: Q01DX Z (sc), vehicle: steriod suspending solution): 96 % of control

SMILES: O=c1cn[nH]c(=O)[nH]1
- T/C (dose: 62.5 mg/kg/injection, schedule: Q01DX Z (ip), vehicle: carboxymethylcellulose (CMC)): 96 % of control
- T/C (dose: 125.0 mg/kg/injection, schedule: Q01DX Z (ip), vehicle: carboxymethylcellulose (CMC)): 106 % of control
- T/C (dose: 250.0 mg/kg/injection, schedule: Q01DX Z (ip), vehicle: carboxymethylcellulose (CMC)): 116 % of control
- T/C (dose: 500.0 mg/kg/injection, schedule: Q01DX Z (ip), vehicle: carboxymethylcellulose (CMC)): 114 % of control
- T/C (dose: 1000.0 mg/kg/injection, schedule: Q01DX Z (ip), vehicle: carboxymethylcellulose (CMC)): 112 % of control

SMILES: O=C(Nc1ccc(C2=NCCCN2)cc1)c1ccc(NC(=O)c2ccc(C3=NCCCN3)cc2)cc1
- T/C (dose: 0.24 mg/kg/injection, schedule: Q01DX Z (ip), vehicle: carboxymethylcellulose (CMC)): 97 % of control
- T/C (dose: 0.47 mg/kg/injection, schedule: Q01DX Z (ip), vehicle: carboxymethylcellulose (CMC)): 101 % of control
- T/C [7]: 104 % of control
- T/C [8]: 98 % of control
- T/C (dose: 1.95 mg/kg/injection, schedule: Q01DX Z (ip), vehicle: carboxymethylcellulose (CMC)): 175 % of control and 192 % of control
- T/C (dose: 3.9 mg/kg/injection, schedule: Q01DX Z (ip), vehicle: carboxymethylcellulose (CMC)): 169 % of control and 232 % of control
- T/C (dose: 7.8 mg/kg/injection, schedule: Q01DX Z (ip), vehicle: carboxymethylcellulose (CMC)): 216 % of control
- T/C (dose: 15.6 mg/kg/injection, schedule: Q01DX Z (ip), vehicle: carboxymethylcellulose (CMC)): 112 % of control and 122 % of control

SMILES: Nc1nc(=S)c2ncn(C3OC(CO)C(O)C3O)c2[nH]1 (stereo unspecified)
- T/C [10]: 92 % of control
- T/C [11]: 91 % of control
- T/C (dose: 0.62 mg/kg/injection, schedule: Q01DX Z (ip), vehicle: carboxymethylcellulose (CMC)): 102 % of control
- T/C [12]: 111 % of control
- T/C [4]: 152 % of control

SMILES: C[n+]1c2ccccc2nc2c(N)cc(N)cc21
- T/C (dose: 1.6 mg/kg/injection, schedule: Q01DX Z (ip), vehicle: carboxymethylcellulose (CMC)): 101 % of control
- T/C [1]: 102 % of control
- T/C (dose: 6.3 mg/kg/injection, schedule: Q01DX Z (ip), vehicle: carboxymethylcellulose (CMC)): 98 % of control and 104 % of control
- T/C [2]: 104 % of control
- T/C [3]: 104 % of control

SMILES: [I][Hg][CH2]C1COC([CH2][Hg][I])CO1 (stereo unspecified)
- T/C [8]: 102 % of control
- T/C (dose: 3.75 mg/kg/injection, schedule: Q01DX Z (ip), vehicle: carboxymethylcellulose (CMC)): 95 % of control
- T/C [9]: 102 % of control
- T/C (dose: 15.0 mg/kg/injection, schedule: Q01DX Z (ip), vehicle: carboxymethylcellulose (CMC)): 113 % of control
- T/C (dose: 30.0 mg/kg/injection, schedule: Q01DX Z (ip), vehicle: carboxymethylcellulose (CMC)): 150 % of control
- T/C (dose: 60.0 mg/kg/injection, schedule: Q01DX Z (ip), vehicle: carboxymethylcellulose (CMC)): 107 % of control

SMILES: COS(C)(=O)=O
- T/C (dose: 12.5 mg/kg/injection, schedule: Q01DX Z (ip), vehicle: water): 101 % of control
- T/C (dose: 25.0 mg/kg/injection, schedule: Q01DX Z (ip), vehicle: water): 98 % of control and 99 % of control
- T/C (dose: 50.0 mg/kg/injection, schedule: Q01DX Z (ip), vehicle: water): 103 % of control and 112 % of control
